Source: patent US20150166617A1, “COMPOSITIONS AND METHODS OF TREATING ALZHEIMER'S DISEASE” (UNIVERSITY OF MIAMI, priority 2012, published 2015)
Square brackets hold non-standard residues; d marks the D form. Peptide text beside a SMILES is read from it. * marks the point of attachment. Phe(F5) = N[C@@H](Cc1c(F)c(F)c(F)c(F)c1F)C(=O)O; Phe(4-Cl) = N[C@@H](Cc1ccc(Cl)cc1)C(=O)O; hArg = N=C(N)NCCCC[C@H](N)C(=O)O; 12Ado = NCCCCCCCCCCCC(=O)O; Nle = CCCC[C@H](N)C(=O)O; Orn = NCCC[C@H](N)C(=O)O; Abu = CC[C@H](N)C(=O)O; PhAc = O=C(Cc1ccccc1)*

Assays:
[1] = system: HCN-2 cells; assay: Cell viability assay, HCN-2 cells treated with amyloid-β1-42 (MTT), Example 5; type: cell-based; conditions: 10 μM amyloid-β1-42; peptide 10 nM, 100 nM, 1 μM; four days of exposure; FIG. 7
Description: Differentiated HCN-2A neuronal cells were treated with 10 μM amyloid-β1-42 alone and in combination with 10 nM, 100 nM and 1 μM of MIA-602, MIA-606 and MIA 640. After the treatment, the cell viability was determinate as indicated by the supplier using the Promega Cell Titer 96® Aqueous Non-Radioactive Cell Proliferation Assay. The absorbance level was determined at 490 nm. Data are percentage of control (n=3).
HCN-2 cells (American Type Culture Collection, Manassas, Va., USA) were cultured in DMEM medium (supplemented with 10% Fetal Bovine Serum (FBS) and 0.1% penicillin/streptomycin) at 37° C. and in an atmosphere of air and 5% CO2. Cell were directly plated into 96-well micro plates at 5,000 cells/cm^2. After 7 days, to allow cell number duplication (up to 70-80% confluence), the differentiation of HCN-2 cells was induced by adding fresh medium containing 25 ng/ml NGF, 0.5 mM dibutyryl cAMP and 0.5 mM isobutylmethylxanthine (IBMX) (all from Sigma-Aldrich, St. Louis, Mo.) for a week. Then, human amyloid-β1-42 (Sunnyvale, Calif.) stock solution (10 mM) was prepared in TRIS and then immediately diluted to appropriate concentrations in the assay medium. The medium used for neurotoxicity assay was N2-supplemented DMEMF12 (Gibco BRL, NY) with 2% FBS. The treatment groups were control, amyloid-β1-42, and the combination treatments with amyloid-β1-42 and 3 doses (10 nM, 100 nM and 1 μM) of the analogs (MIA-602, MIA-606 and MIA-640). The effect of the analogs on cell viability was evaluated after four days of exposure by using the 3-(4,5-Dimethylthiazol-2-yl)-2,5-diphenyltetrazolium bromide (MTT) assay (Cell Titer 96® Non-Radioactive Cell Proliferation Assay, Promega, Madison, Wis.), according to the manufacturer's instructions.

[2] = system: Alzheimer's disease related genes; assay: Mouse Alzheimer's Disease real-time quantitative PCR array on brain samples of 5XFAD mice; type: in vivo; conditions: brain of 5XFAD mice, 10 μg daily for six months
Description: Total RNA was isolated and DNAse treated from representative hemispheria using NucleoSpin kit according to the manufacturer's instructions (Macherey-Nagel Inc., Bethlehem, Pa.). Five samples each from the control and the 10 μg MIA-690 group were analyzed. The yield and the quality of RNA samples were determined spectrophotometrically using 260 nm, and 260/280 and 260/230 nm ratio. The synthesis of cDNA was performed as follows. Briefly, 1 μg of RNA from each sample was reverse-transcribed into cDNA by RT First Strand kit (Qiagen). Reverse transcription was done in a Veriti 96-well thermal cycler (Applied Biosystems). The Mouse Alzheimer's Disease real-time quantitative PCR array (PAMM-057Z Qiagen) used in the study contains 84 unique genes related to Alzheimer's disease. All PCR arrays were performed using iQ5 Multicolor Real-Time Detections System (Bio-Rad). […] Data analysis of gene expression was performed using Excel based PCR Array Data Analysis Software provided by the manufacturer (Qiagen): fold-changes in gene expression were calculated using the ΔΔCt method and five stably expressed housekeeping genes (Act b, B2m, GAPDH, Gus b, Hsp 90 ab1) were used for normalization of the results.

| Compound | viability of neurons (HCN-2) under amyloid-β1-42 co-treatment [1] | Fold change vs. controls: amyloid-β (A4) precursor protein binding family A, member 2 [2] | Fold change vs. controls: amyloid-β (A4) precursor protein binding family B, member 3 [2] |
| --- | --- | --- | --- |
| Phac-Ada-Tyr^1-D-Arg^2-Asp^3-Ala^4-Ile^5-Cpa^6-Thr^7-Ala^8-Har^9-Fpa5^10-His^11-Orn^12-Val^13-Leu^14-Abu^15-Gln^16-Glu^17-Ser^18-Ala^19-His^20-Orn^21-Leu^22-Leu^23-Gln^24-Asp^25-Ile^26-Nle^27-D-Arg^28-Har^29-Ada-NH2 [MIA-640] | attenuated the toxic impact of co-treatment with amyloid-β1-42 on the viability of neurons |  |  |
| Phac-Ada-Tyr^1-D-Arg^2-Asp^3-Ala^4-Ile^5-Phe(F)5^6-Thr^7-Me-Ala^8-Har^9-Tyr(Me)^10-His^11-Orn^12-Val^13-Leu^14-Abu^15-Gln^16-Leu^17-Ser^18-Ala^19-His^20-Orn^21-Leu^22-Leu^23-Gln^24-Asp^25-Ile^26-Nle^27-D-Arg^28-Har^29-Agm-NH2 [MIA-606] | attenuated the toxic impact of co-treatment with amyloid-β1-42 on the viability of neurons |  |  |
| CCCC[C@H](NC(=O)[C@@H](NC(=O)[C@H](CC(=O)O)NC(=O)[C@H](CCC(N)=O)NC(=O)[C@H](CC(C)C)NC(=O)[C@H](CC(C)C)NC(=O)[C@H](CCCN)NC(=O)[C@H](Cc1c[nH]cn1)NC(=O)[C@H](C)NC(=O)[C@H](CO)NC(=O)[C@H](CC(C)C)NC(=O)[C@H](CCC(N)=O)NC(=O)[C@H](CC)NC(=O)[C@H](CC(C)C)NC(=O)[C@@H](NC(=O)[C@H](CCCN)NC(=O)[C@H](Cc1c[nH]cn1)NC(=O)[C@H](Cc1c(F)c(F)c(F)c(F)c1F)NC(=O)[C@H](CCCCNC(=N)N)NC(=O)[C@H](C)NC(=O)[C@@H](NC(=O)[C@H](Cc1ccc(Cl)cc1)NC(=O)[C@@H](NC(=O)[C@H](C)NC(=O)[C@H](CC(=O)O)NC(=O)[C@@H](CCCNC(=N)N)NC(=O)[C@H](Cc1ccc(O)cc1)NC(=O)CCCCCCCCCCCNC(=O)Cc1ccccc1)[C@@H](C)CC)[C@@H](C)O)C(C)C)[C@@H](C)CC)C(=O)N[C@H](CCCNC(=N)N)C(=O)N[C@@H](CCCCNC(=N)N)C(N)=O [MIA-690, Phac-Ada-Tyr^1-D-Arg^2-Asp^3-Ala^4-Ile^5-Cpa^6-Thr^7-Ala^8-Har^9-Fpa5^10-His^11-Orn^12-Val^13-Leu^14-Abu^15-Gln^16-Leu^17-Ser^18-Ala^19-His^20-Orn^21-Leu^22-Leu^23-Gln^24-Asp^25-Ile^26-Nle^27-D-Arg^28-Har^29-NH2] ({PhAc-12Ado}-Y[dR]DAI[Phe(4-Cl)]TA[hArg][Phe(F5)]H[Orn]VL[Abu]QLSAH[Orn]LLQDI[Nle][dR][hArg]-NH2) |  | −2.94 fold | −2.04 fold |
| Phac-Ada-Tyr^1-D-Arg^2-Asp^3-Ala^4-Ile^5-Phe(F)5^6-Thr^7-Ala^8-Har^9-Tyr(Me)^10-His^11-Orn^12-Val^13-Leu^14-Abu^15-Gln^16-Leu^17-Ser^18-Ala^19-His^20-Orn^21-Leu^22-Leu^23-Gln^24-Asp^25-Ile^26-Nle^27-D-Arg^28-Har^29-NH2 [MIA-602] | attenuated the toxic impact of co-treatment with amyloid-β1-42 on the viability of neurons |  |  |
